Measurements: ChEMBL document CHEMBL5038625, “Application of the dual-tail approach for the design and synthesis of novel Thiopyrimidine-Benzenesulfonamide hybrids as selective carbonic anhydrase inhibitors” (Eur J Med Chem, 2022)

Assays:
[1] = target: Carbonic anhydrase 9 (Homo sapiens, UniProt Q16790); assay: Inhibition of human CA9 preincubated for 15 mins by phenol red dye based stopped flow CO2 hydration assay
[2] = target: Carbonic anhydrase 1 (Homo sapiens, UniProt P00915); assay: Inhibition of human CA1 preincubated for 15 mins by phenol red dye based stopped flow CO2 hydration assay
Chain of Carbonic anhydrase 1 (P00915 whole entry): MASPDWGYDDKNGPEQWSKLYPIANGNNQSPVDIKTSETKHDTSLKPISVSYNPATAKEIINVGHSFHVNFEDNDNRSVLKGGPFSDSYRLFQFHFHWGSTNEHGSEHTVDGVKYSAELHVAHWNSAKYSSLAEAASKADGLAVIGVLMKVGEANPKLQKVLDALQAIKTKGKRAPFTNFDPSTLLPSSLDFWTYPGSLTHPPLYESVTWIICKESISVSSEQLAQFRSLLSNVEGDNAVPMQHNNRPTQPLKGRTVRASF

[3] = tested on: MCF7; assay: Antiproliferative activity against human MCF7 cells assessed as reduction in cell viability incubated for 24 hrs by sulforhodamine B assay; format: functional, cell-based; conditions: MCF7, 24 h
[4] = tested on: MDA-MB-231; assay: Antiproliferative activity against human MDA-MB-231 cells assessed as reduction in cell viability incubated for 24 hrs by sulforhodamine B assay; format: functional, cell-based; conditions: MDA-MB-231, 24 h
[5] = tested on: T47D; assay: Antiproliferative activity against human T47D cells assessed as reduction in cell viability incubated for 24 hrs by sulforhodamine B assay; format: functional, cell-based
[6] = target: Carbonic anhydrase 2 (Homo sapiens, UniProt P00918); assay: Inhibition of human CA2 preincubated for 15 mins by phenol red dye based stopped flow CO2 hydration assay
[7] = tested on: CAKI-1; assay: Antiproliferative activity against human CAKI-1 cells assessed as cell growth inhibition at 10 uM incubated for 24 hrs by sulforhodamine B assay; format: functional; conditions: read-out: GI
[8] = tested on: NCI-H226; assay: Antiproliferative activity against human NCI-H226 cells assessed as cell growth inhibition at 10 uM incubated for 24 hrs by sulforhodamine B assay; format: functional; conditions: read-out: GI
[9] = tested on: K562; assay: Antiproliferative activity against human K562 cells assessed as cell growth inhibition at 10 uM incubated for 24 hrs by sulforhodamine B assay; format: functional; conditions: read-out: GI
[10] = tested on: UO-31; assay: Antiproliferative activity against human UO-31 cells assessed as cell growth inhibition at 10 uM incubated for 24 hrs by sulforhodamine B assay; format: functional; conditions: read-out: GI
[11] = tested on: SR; assay: Antiproliferative activity against human SR cells assessed as cell growth inhibition at 10 uM incubated for 24 hrs by sulforhodamine B assay; format: functional; conditions: read-out: GI
[12] = tested on: SF-539; assay: Antiproliferative activity against human SF-539 cells assessed as cell growth inhibition at 10 uM incubated for 24 hrs by sulforhodamine B assay; format: functional; conditions: read-out: GI
[13] = tested on: NCI-H522; assay: Antiproliferative activity against human NCI-H522 cells assessed as cell growth inhibition at 10 uM incubated for 24 hrs by sulforhodamine B assay; format: functional; conditions: read-out: GI
[14] = tested on: UACC-62; assay: Antiproliferative activity against human UACC-62 cells assessed as cell growth inhibition at 10 uM incubated for 24 hrs by sulforhodamine B assay; format: functional; conditions: read-out: GI
[15] = tested on: MDA-MB-231; assay: Antiproliferative activity against human MDA-MB-231 cells assessed as cell growth inhibition at 10 uM incubated for 24 hrs by sulforhodamine B assay; format: functional; conditions: read-out: GI
[16] = tested on: SNB-19; assay: Antiproliferative activity against human SNB-19 cells assessed as cell growth inhibition at 10 uM incubated for 24 hrs by sulforhodamine B assay; format: functional; conditions: read-out: GI
[17] = tested on: MOLT-4; assay: Antiproliferative activity against human MOLT-4 cells assessed as cell growth inhibition at 10 uM incubated for 24 hrs by sulforhodamine B assay; format: functional; conditions: read-out: GI
[18] = tested on: MDA-MB-468; assay: Antiproliferative activity against human MDA-MB-468 cells assessed as cell growth inhibition at 10 uM incubated for 24 hrs by sulforhodamine B assay; format: functional; conditions: read-out: GI
[19] = tested on: PC-3; assay: Antiproliferative activity against human PC-3 cells assessed as cell growth inhibition at 10 uM incubated for 24 hrs by sulforhodamine B assay; format: functional; conditions: read-out: GI
[20] = tested on: NCI-H23; assay: Antiproliferative activity against human NCI-H23 cells assessed as cell growth inhibition at 10 uM incubated for 24 hrs by sulforhodamine B assay; format: functional; conditions: read-out: GI
[21] = tested on: RPMI-8226; assay: Antiproliferative activity against human RPMI-8226 cells assessed as cell growth inhibition at 10 uM incubated for 24 hrs by sulforhodamine B assay; format: functional; conditions: read-out: GI
[22] = tested on: MCF7; assay: Antiproliferative activity against human MCF7 cells assessed as cell growth inhibition at 10 uM incubated for 24 hrs by sulforhodamine B assay; format: functional; conditions: read-out: GI
[23] = tested on: RXF 393; assay: Antiproliferative activity against human RXF 393 cells assessed as cell growth inhibition at 10 uM incubated for 24 hrs by sulforhodamine B assay; format: functional; conditions: read-out: GI
[24] = tested on: T47D; assay: Antiproliferative activity against human T47D cells assessed as cell growth inhibition at 10 uM incubated for 24 hrs by sulforhodamine B assay; format: functional; conditions: read-out: GI
[25] = tested on: CCRF-CEM; assay: Antiproliferative activity against human CCRF-CEM cells assessed as cell growth inhibition at 10 uM incubated for 24 hrs by sulforhodamine B assay; format: functional; conditions: read-out: GI
[26] = tested on: HL-60; assay: Antiproliferative activity against human HL-60 cells assessed as cell growth inhibition at 10 uM incubated for 24 hrs by sulforhodamine B assay; format: functional; conditions: read-out: GI
[27] = tested on: HCT-15; assay: Antiproliferative activity against human HCT-15 cells assessed as cell growth inhibition at 10 uM incubated for 24 hrs by sulforhodamine B assay; format: functional; conditions: read-out: GI
[28] = tested on: HOP-92; assay: Antiproliferative activity against human HOP-92 cells assessed as cell growth inhibition at 10 uM incubated for 24 hrs by sulforhodamine B assay; format: functional; conditions: read-out: GI
[29] = tested on: ACHN; assay: Antiproliferative activity against human ACHN cells assessed as cell growth inhibition at 10 uM incubated for 24 hrs by sulforhodamine B assay; format: functional; conditions: read-out: GI
[30] = tested on: LOX IMVI; assay: Antiproliferative activity against human LOX IMVI cells assessed as cell growth inhibition at 10 uM incubated for 24 hrs by sulforhodamine B assay; format: functional; conditions: read-out: GI
[31] = tested on: NCI-H460; assay: Antiproliferative activity against human NCI-H460 cells assessed as cell growth inhibition at 10 uM incubated for 24 hrs by sulforhodamine B assay; format: functional; conditions: read-out: GI
[32] = tested on: SW-620; assay: Antiproliferative activity against human SW-620 cells assessed as cell growth inhibition at 10 uM incubated for 24 hrs by sulforhodamine B assay; format: functional; conditions: read-out: GI
[33] = tested on: A498; assay: Antiproliferative activity against human A498 cells assessed as cell growth inhibition at 10 uM incubated for 24 hrs by sulforhodamine B assay; format: functional; conditions: read-out: GI
[34] = tested on: SNB-75; assay: Antiproliferative activity against human SNB-75 cells assessed as cell growth inhibition at 10 uM incubated for 24 hrs by sulforhodamine B assay; format: functional; conditions: read-out: GI

| SMILES | Ki [1] [µM] | IC50 [3] [µM] | IC50 [4] [µM] | IC50 [5] [µM] | Ki [6] [µM] | inhibition of growth at 10 µM [7] [%] | inhibition of growth at 10 µM [9] [%] | inhibition of growth at 10 µM [10] [%] | inhibition of growth at 10 µM [11] [%] | inhibition of growth at 10 µM [14] [%] | other results |
| --- | --- | --- | --- | --- | --- | --- | --- | --- | --- | --- | --- |
| COc1ccc(C(=O)CSc2nc(Nc3ccc(S(N)(=O)=O)cc3)c(C#N)c(-c3cc(OC)ccc3OC)n2)cc1 | 8.93 | – | – | – | – | – | – | – | – | – | Ki [2]: > 20 µM |
| NS(=O)(=O)c1ccc(Nc2cc(-c3ccccc3)nc(SCC(=O)c3ccccc3)n2)cc1 | 0.0858 | 44.5 | 26 | 44.4 | – | – | – | – | – | – | – |
| O=c1[nH]cc(F)c(=O)[nH]1 [FLUOROURACIL] | – | 2.46 | 3.5 | 6.7 | – | – | – | – | – | – | – |
| COc1ccc(C(=O)CSc2nc(Nc3cccc(S(N)(=O)=O)c3)c(C#N)c(-c3ccc(C)cc3)n2)cc1 | 0.878 | – | – | – | – | – | – | – | – | – | – |
| COc1ccc(OC)c(-c2nc(SCC(=O)c3ccccc3)nc(Nc3cccc(S(N)(=O)=O)c3)c2C#N)c1 | 5.05 | – | – | – | > 20 | – | – | – | – | – | – |
| COc1ccc(C(=O)CSc2nc(Nc3ccc(S(N)(=O)=O)cc3)c(C#N)c(C(C)C)n2)cc1 | 0.0918 | 19.8 | 50.4 | 60 | – | 5 | 10.9 | 16.5 | 11.7 | 8.47 | inhibition of growth at 10 µM [8]: 7.41%; inhibition of growth at 10 µM [12]: 5.08%; inhibition of growth at 10 µM [13]: 5.22%; inhibition of growth at 10 µM [15]: 5.52% |
| COc1ccc(C(=O)CSc2nc(Nc3cccc(S(N)(=O)=O)c3)c(C#N)c(C(C)C)n2)cc1 | 0.0949 | – | – | – | > 20 | 10.8 | 18.5 | 20.4 | 11 | 11.6 | inhibition of growth at 10 µM [16]: 5.74%; inhibition of growth at 10 µM [17]: 13.4%; inhibition of growth at 10 µM [18]: 8.74%; inhibition of growth at 10 µM [19]: 7.35%; inhibition of growth at 10 µM [20]: 11%; inhibition of growth at 10 µM [21]: 5.91%; inhibition of growth at 10 µM [22]: 12.9%; inhibition of growth at 10 µM [23]: 10.2%; inhibition of growth at 10 µM [24]: 14.2%; inhibition of growth at 10 µM [12]: 7.32%; inhibition of growth at 10 µM [25]: 6.87%; inhibition of growth at 10 µM [13]: 6.43%; inhibition of growth at 10 µM [26]: 6.4%; inhibition of growth at 10 µM [27]: 6.79%; inhibition of growth at 10 µM [28]: 11.6%; inhibition of growth at 10 µM [29]: 6.14% |
| COc1ccc(C(=O)CSc2nc(Nc3ccc(S(N)(=O)=O)cc3)cc(-c3ccccc3)n2)cc1 | 0.0915 | – | – | – | > 20 | 12.6 | 46.3 | 13 | 27 | 13.2 | inhibition of growth at 10 µM [17]: 22.1%; inhibition of growth at 10 µM [30]: 26.1%; inhibition of growth at 10 µM [31]: 26.9%; inhibition of growth at 10 µM [32]: 13.9%; inhibition of growth at 10 µM [33]: 19.8%; Ki [2]: > 20 µM; inhibition of growth at 10 µM [25]: 11%; inhibition of growth at 10 µM [26]: 15%; inhibition of growth at 10 µM [34]: 10.4%; inhibition of growth at 10 µM [27]: 9.43%; inhibition of growth at 10 µM [29]: 28% |
